From PMC10045301, “The Role of Pyrazolo[3,4-d]pyrimidine-Based Kinase Inhibitors in The Attenuation of CCl4-Induced Liver Fibrosis in Rats” (Antioxidants, 2023)
Like-named read-outs stand apart in the source and are kept apart here.

Columns and labels:
induced liver fibrosis [1] = conditions: cited from earlier work
Cytotoxicity MTT assay = assay type: cell-based; conditions: human, HepG2 cells (hepatocellular carcinoma cell line), HepG2, MTT, mean ± SEM, n = 3
Description: (§1) MTT assay was used to estimate cell viability potential for 24 h using hepatocellular carcinoma cell line (HepG2) as previously reported. Calculation of the relative cell viability percentage was performed following the equation: % Relative cell viability = (Absorbance of treated samples/Absorbance of untreated sample) × 100.

[2] = tested on: healthy adult Sprague–Dawley male rats; experiment: In vivo toxicity study, 6 weeks oral daily; parameters: species or system rat; conditions: plasma, oral daily 6 weeks, dose equimolar to celecoxib 20 mg/kg; mean ± SEM, n = 6
Description: (§2) Ninety-eight healthy adult Sprague–Dawley male rats with an average weight of 150 ± 20 g were obtained from the animal facility at the Institute of Graduate Studies and Research, Alexandria University, Egypt. Animals were provided with a balanced commercial diet ad libitum and adapted for two weeks prior to the experiment. All animals were sacrificed under IP thiopental anesthesia (50 mg/kg) 48 h after the last treatment.
Blood samples were collected using cardiac puncture in Li-heparin tubes and centrifuged at 2000× g for 10 min to obtain the plasma. Then, the determination of hepatic biomarkers and renal profile was performed according to kits purchased from Roche Diagnostics, USA, using a Roche/Hitachi analyzer (cobas c 311, cobas c 501/502). […]

induced liver fibrosis [3] = conditions: injected subcutaneously 3.6 µL/day, mice models; cited from earlier work
[4] = tested on: hepatocellular carcinoma cell line (HepG2); experiment: Cytotoxicity MTT assay; assay type: cell-based; conditions: human, 24 h
Description: as §1

COX-1 = target: T1, COX-1 (Ovis aries, UniProt P05979); experiment: In vitro COX-1 inhibition assay (Cayman colorimetric COX (ovine) inhibitor screening kit); assay type: biochemical; conditions: mean ± SEM, n = 3
T1 construct: purchased Cayman Chemicals, Ann Arbor, MI, USA 560131
T1 sequence (P05979 25-600): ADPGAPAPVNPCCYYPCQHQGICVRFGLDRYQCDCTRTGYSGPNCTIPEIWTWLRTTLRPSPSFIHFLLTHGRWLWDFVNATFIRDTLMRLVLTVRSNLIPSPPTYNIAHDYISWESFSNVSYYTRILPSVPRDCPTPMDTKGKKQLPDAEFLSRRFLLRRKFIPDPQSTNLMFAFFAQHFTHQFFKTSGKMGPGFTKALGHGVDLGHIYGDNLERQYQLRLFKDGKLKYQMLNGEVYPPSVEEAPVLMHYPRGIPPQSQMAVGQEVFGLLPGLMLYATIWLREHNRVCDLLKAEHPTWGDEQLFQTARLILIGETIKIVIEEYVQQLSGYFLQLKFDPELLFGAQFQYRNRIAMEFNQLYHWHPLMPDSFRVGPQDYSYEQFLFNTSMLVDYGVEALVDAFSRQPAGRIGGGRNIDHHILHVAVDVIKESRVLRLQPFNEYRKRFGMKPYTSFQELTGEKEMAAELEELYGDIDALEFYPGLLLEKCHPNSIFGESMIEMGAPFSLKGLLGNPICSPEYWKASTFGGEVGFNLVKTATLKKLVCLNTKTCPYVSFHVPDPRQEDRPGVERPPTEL

[5] = tested on: CCl4-induced liver fibrosis in male Sprague–Dawley rats; experiment: Therapeutic model treated after induction of CCl4 liver fibrosis; assay type: in vivo, rat; conditions: for redox status (MDA, GSH, SOD in liver homogenate): oral daily weeks 7-12 after CCl4, compared to Clx
Description: as §2
Blood samples were collected using cardiac puncture in Li-heparin tubes and centrifuged at 2000× g for 10 min to obtain the plasma. Then, the determination of hepatic biomarkers and renal profile was performed according to kits purchased from Roche Diagnostics, USA, using a Roche/Hitachi analyzer (cobas c 311, cobas c 501/502).
Rats were sacrificed by exsanguination following blood sample collection. The livers were excised, rinsed with cold saline, and dried on filter paper. A portion of each excised liver was put in 10% formalin solution, and then embedded in paraffin and sliced into 4–5 µm sections for histological evaluation. Another part of each liver was snap frozen and stored at −80 °C for later analyses of markers. The remaining tissue was stored in RNAlater solution (Qiagen, Germany, Mat. No. 1018087, lot no. 148052467) for qRT-PCR.
Sections from formalin-fixed paraffin-embedded (FFPE) liver tissues were stained with hematoxylin and eosin and Masson trichrome stain to evaluate liver necrosis and fibrosis. The scores of liver fibrosis degree were evaluated according to a 4-tiered scoring system following the criteria: score 0 = absent fibrosis where scanty fibrous tissue is seen only in portal tracts, score 1 = minimal fibrosis (expanded portal tracts with short fibrous septea may be extending from portal tracts), score 2 = mild fibrosis (long fibrous septea is extending from portal tracts with occasional bridging to other portal tracts or to central veins), score 3 = moderate fibrosis (frequent portal to portal or to central vein bridging with infrequent pseudolobule formation), and score 4 = severe fibrosis (nodular liver with evident pseudolobule formation). For collagen morphological quantification, multiple random pictures of the trichrome-stained section were taken using a microscope-adopted camera at ×400 power. The collagen-positive area stained in blue was evaluated using ImageJ software and then calculated as a percentage of the total field area. At least eight fields were assessed and the mean value was then calculated.
Four-micron sections were cut and mounted on positively charged slides. They were stained with smooth muscle actin (SMA) monoclonal primary antibody (Dako, Denmark; CodeIR611, lot no. 41247585) using Dako auto Stainer (autostainer Link 48). A positive control (leiomyoma) was used in each run. Immune-stained slides were assessed, and ten high power fields of each section were photographed using a Leica camera. Photos were analyzed using ImageJ software to record the immune-positive area (seen as brown staining) in each photo. Then, the positively stained area percentage was calculated as a mean of the 10 examined photos for each rat.
Protein content determination was performed according to Bradford using bovine serum albumin as a standard. A volume of 5 μL of each sample and standard was first added to each well then 250 μL of Ready-To-Use Coomassie Blue G-250 Based Reagent (Thermo Scientific, Waltham, MA, USA; Prod no. 23200, lot no. UE285518) was added. The microplate was put on the shaker for 30 s and then incubated for 10 min at RT. Absorbance was read at […] using a microplate reader.
The malondialdehyde (MDA) level was estimated using the thiobarbituric acid method as previously described. Liver glutathione was estimated using a colorimetric kit (Biodiagnostics, Egypt; catalog no. GR 25 11) according to the method of Beutler et al.. […]

[6] = liver tissue homogenate, after CCl4

| Compound | IC50 at 24 h (Cytotoxicity MTT assay) | ALP [2] | ALT [2] | AST [2] | Albumin [2] | Cholesterol [2] | Creatinine [2] | Total Bilirubin [2] | Triglycerides [2] | Safety Index (SI) [4] | IC50 (COX-1) | redox status (MDA, GSH, SOD in liver homogenate) [5] | other results |
| --- | --- | --- | --- | --- | --- | --- | --- | --- | --- | --- | --- | --- | --- |
| Cc1ccc(-c2cc(C(F)(F)F)nn2-c2ccc(S(N)(=O)=O)cc2)cc1 [Celecoxib, celecoxib, reference compound] | 144.6 ± 1.08 µM | 138.66 ± 13.40 U/L | 42 ± 3.33 U/L | 147.5 ± 18.65 U/L | 3.73 ± 0.06 g/dL | 52.5 ± 2.21 mg/dL | 0.35 ± 0.01 mg/dL | 0.084 ± 0.006 mg/dL | 53 ± 7.11 mg/dL | – | – | – | effect on induced liver fibrosis (induced liver fibrosis [1]; 15 mg/kg/day orally, rat models): no effect; effect on induced liver fibrosis (induced liver fibrosis [1]; 20 mg/kg/day orally): potentiality in the attenuation of induced liver fibrosis; effect on induced liver fibrosis (induced liver fibrosis [3]): no effect |
| COc1ccc(/C=N/Nc2ncnc3c2cnn3-c2ccccc2)cc1 [Compound D1] | 370.7 ± 0.089 µM | 159.5 ± 7.48 U/L | 49.66 ± 4.99 U/L | 139.5 ± 7.78 U/L | 3.9 ± 0.12 g/dL | 71.66 ± 7 mg/dL | 0.36 ± 0.03 mg/dL | 0.073 ± 0.004 mg/dL | 67 ± 5.42 mg/dL | 2745.9 | 7.5 ± 0.09 µM | no significance difference to Clx treatment | – |
| COc1ccc(/C=N/Nc2ncnc3c2cnn3-c2ccccc2)cc1OC [Compound D2] | 344.95 ± 0.3 µM | 154.16 ± 10.92 U/L | 39.66 ± 2.13 U/L | – | 3.78 ± 0.12 g/dL | 67 ± 6.47 mg/dL | 0.37 ± 0.01 mg/dL | 0.071 ± 0.01 mg/dL | 61.83 ± 7.11 mg/dL | 3349.0 | 8.5 ± 0.04 µM | best enhancement | hepatic mRNA expression of MMP-9 ([5]; after CCl4 and treatment, vs model and control): more significant reduction, reaching a low MMP-9 level near that of the control group; reduction of TGF-β compared to celecoxib ([5]; hepatic mRNA, after CCl4 and treatment): more significant than celecoxib; proinflammatory and profibrogenic cytokines (TNF-α protein, TGF-β and IL-6 gene expression) ([5]; liver, after CCl4 and treatment): decreased considerably reaching the control level; severity of fibrosis (architecture, fibrotic score, collagen- and α-SMA-positive areas, α-SMA and COL1A1 mRNA) ([5]; oral daily weeks 7-12 after 6 weeks CCl4, vs model and Clx group): best effect; restoration of increased plasma ALT and AST ([5]; plasma, after CCl4 and treatment): more significant |
| COc1cc(/C=N/Nc2ncnc3c2cnn3-c2ccccc2)cc(OC)c1OC [Compound D3] | 356.5 ± 2.9 µM | 123.16 ± 4.12 U/L | 37.83 ± 2.45 U/L | 147.33 ± 9.81 U/L | 3.86 ± 0.12 g/dL | 62.33 ± 1.68 mg/dL | 0.42 ± 0.02 mg/dL | 0.076 ± 0.006 mg/dL | 64 ± 8.01 mg/dL | 4042.7 | 11.5 ± 0.05 µM | – | MDA level compared to Clx [5, 6]: significantly better that Clx; SOD compared to Clx [5, 6]: equal to it; reduced GSH compared to Clx [5, 6]: worse |
